From patent US20070015779A1, “COMPOSITIONS AND TREATMENTS FOR INHIBITING KINASE AND/OR HMG-COA REDUCTASE” (priority 2005, published 2007)
pIC50: −log10 of the molar value. Where “and” joins values, the source holds several entries; their conditions need not be identical. Identical values can stand only once. Counter-ions that a name gives are not always drawn.

Legend:
[1] = tested on: LPS-induced TNF-α release from human peripheral blood mononuclear cells; test: Whole cell LPS-stimulated TNF-α release assay; type: cell-based; conditions: inhibition of LPS-induced TNF-α release from human peripheral blood mononuclear cells by 50%
Protocol: The procedure as described in Welker et al., Int. Arch. Allergy and Immunol. 109:110-115 (1996) can be followed. Briefly, a candidate compound and/or vehicle can be preincubated with human peripheral blood mononuclear leukocytes (PBML, 5×10^5/ml) cells in AIM-V medium pH 7.4 for 2 hours. Lipopolysaccharide (LPS, 25 ng/ml) can be added to stimulate the cells, which can be incubated overnight at 37° C. TNF-α cytokine levels in the conditioned medium can then be quantitated using a sandwich ELISA kit.

[2] = tested on: oxazolone-induced mouse ear swelling; test: Model for inhibition of topical inflammation (oxazolone-induced mouse ear swelling); type: in vivo; conditions: BALB/c mice, ear thickness 24 hours after oxazolone challenge
Protocol: Model for Inhibition of Topical Inflammation. […] Left ears were untreated. The thickness of both ears of each animal was measured with a Dyer model micrometer gauge 24 hours after oxazolone challenge, and the net increase in thickness of right ears versus left ears was calculated for each animal. Percent inhibition was calculated according to the formula: [(Iv−It)/Iv]×100, where Iv and It respectively refer to the average net increase in right ear thickness (mm) for vehicle and candidate compound treated mice.

[3] = biological target: T1, human recombinant p38α protein kinase (Homo sapiens, UniProt Q16539); test: Human p38α MAP kinase inhibition assay (cell-free); type: biochemical; conditions: inhibition of phosphorylation of myelin basic protein by recombinant human p38α MAP kinase by 50%; Table III; read-out: IC50 p38α MAPK
T1 construct: purchased UBI (Upstate Biotechnology) 14-251; host or cells: E. coli
T1 sequence (Q16539 whole entry): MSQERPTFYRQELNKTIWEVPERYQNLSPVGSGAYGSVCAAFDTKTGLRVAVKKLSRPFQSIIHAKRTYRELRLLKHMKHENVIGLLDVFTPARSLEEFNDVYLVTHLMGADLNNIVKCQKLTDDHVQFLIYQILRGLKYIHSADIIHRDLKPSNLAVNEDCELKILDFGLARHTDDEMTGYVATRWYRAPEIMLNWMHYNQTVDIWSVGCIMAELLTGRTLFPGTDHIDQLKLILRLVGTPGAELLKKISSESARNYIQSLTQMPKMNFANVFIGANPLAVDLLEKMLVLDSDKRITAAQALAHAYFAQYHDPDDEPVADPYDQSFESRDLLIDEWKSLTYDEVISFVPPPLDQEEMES
Protocol: In vitro cell-free p38α MAP kinase inhibition assays were conducted by the method as described in Clerk et al., FEBS Lett., 426:93-96 (1998) for a number of lactones in formulas I/IIa/IIb. Briefly, human recombinant p38α protein kinase expressed in E. coli (UBI #14-251) was used. Myelin basic protein (MBP, UBI #13-110) was employed as substrate, and microtiter plate wells were coated with MBP (0.01 mg/ml) overnight at 4° C. Candidate compound and/or vehicle was preincubated with 0.075 μg/mL enzyme in modified HEPES buffer pH 7.4 at 25° C. for 15 minutes. The reaction was initiated by addition of 100 μM ATP and allowed to proceed for another 60 minutes. The reaction was terminated by aspirating the solution. Phosphorylated MBP was detected by incubation with a mouse monoclonal IgG2a anti-phosphoMBP antibody. Bound anti-phosphoMBP antibody was quantitated by incubation with a HRP conjugated goat anti-mouse IgG.

[4] = biological target: T2, rat liver HMG-CoA reductase (Rattus norvegicus, UniProt P51639); test: Cell-free HMG-CoA reductase inhibition assay; type: biochemical; conditions: concentration required to inhibit rat liver HMG-CoA reductase by 50%; read-out: IC50 HMG-CoA R
T2 sequence (P51639 1-887): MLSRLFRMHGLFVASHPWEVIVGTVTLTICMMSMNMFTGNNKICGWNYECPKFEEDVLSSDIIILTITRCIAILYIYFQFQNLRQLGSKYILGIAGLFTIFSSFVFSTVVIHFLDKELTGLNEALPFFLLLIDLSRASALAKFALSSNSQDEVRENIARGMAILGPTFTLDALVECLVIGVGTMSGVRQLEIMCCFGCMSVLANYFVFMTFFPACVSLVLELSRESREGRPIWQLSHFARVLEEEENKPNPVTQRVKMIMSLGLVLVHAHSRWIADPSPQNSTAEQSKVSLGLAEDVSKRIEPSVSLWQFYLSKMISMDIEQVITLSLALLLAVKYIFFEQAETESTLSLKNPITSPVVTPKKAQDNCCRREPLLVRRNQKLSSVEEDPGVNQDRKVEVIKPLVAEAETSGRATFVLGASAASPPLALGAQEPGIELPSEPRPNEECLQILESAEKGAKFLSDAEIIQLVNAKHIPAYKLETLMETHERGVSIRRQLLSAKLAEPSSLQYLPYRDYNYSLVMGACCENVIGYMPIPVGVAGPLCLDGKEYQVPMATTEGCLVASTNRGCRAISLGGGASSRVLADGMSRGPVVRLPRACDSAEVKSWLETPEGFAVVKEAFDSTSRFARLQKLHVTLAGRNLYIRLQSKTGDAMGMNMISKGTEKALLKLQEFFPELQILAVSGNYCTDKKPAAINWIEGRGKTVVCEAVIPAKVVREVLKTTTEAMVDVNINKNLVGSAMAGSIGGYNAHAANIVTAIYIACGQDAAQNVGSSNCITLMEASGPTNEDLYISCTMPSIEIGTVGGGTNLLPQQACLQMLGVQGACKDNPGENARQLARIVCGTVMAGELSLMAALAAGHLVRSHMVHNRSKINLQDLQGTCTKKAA
Protocol: An example of a cell-free HMG-CoA reductase assay involves radiometric procedures described in Shum et al., Ther. Drug Monit. 20:41-49 (1998), incorporated herein by reference. Briefly, about 150 μg/mL of HMG-CoA reductase can be incubated with a candidate compound, together with about 12 μM [^14C]HMG-CoA and about 200 μM NADPH in about 200 μL 0.2M phosphate buffer (pH about 7.2) for about 0.5 h at about 37° C. The [^14C]mevalonate that forms can be converted under acidic conditions to [^14C]mevalonolactone and separated from un-reacted substrate, for example, by ion-exchange chromatography, and then quantified, for example, by liquid scintillation counting.

[5] = dose 2 × 0.3 mg topical to right ear
[6] = dose 2 × 2 mg topical to right ear
[7] = dose 2 × 1 mg topical to right ear

SMILES | % Inh. [2, 5] | % Inh. [2, 6] | further results
O=C(O)C[C@H](O)C[C@H](O)CCc1c(-c2ccccc2)nn(-c2ccnc(Nc3ccccc3)n2)c1-c1ccccc1 [Example 11c, (3R,5R)-7-(3,5-diphenyl-1-(2-(phenylamino)pyrimidin-4-yl)-1H-pyrazol-4-yl)-3,5-dihydroxyheptanoic acid] | – | – | pIC50 [1]: 4.74
O=C([O-])C[C@H](O)C[C@H](O)/C=C/c1c(C2CC2)nc2ccccc2c1-c1ccc(F)cc1.O=C([O-])C[C@H](O)C[C@H](O)/C=C/c1c(C2CC2)nc2ccccc2c1-c1ccc(F)cc1.[Ca+2] [Pitavastatin calcium] | 9% | 60% | –
CC(C)c1nc(N(C)S(C)(=O)=O)nc(-c2ccc(F)cc2)c1/C=C/[C@@H](O)C[C@@H](O)CC(=O)O [Rosuvastatin sodium] | 20% | – | –
CC(C)c1c(C(=O)Nc2ccccc2)c(-c2ccccc2)c(-c2ccc(F)cc2)n1CC[C@@H]1C[C@@H](O)CC(=O)O1 [Atorvastatin lactone] | 40% | 50% | % Inh. ([2]; dose 2 × 0.3 mg topical to right ear, listed as atorvastatin lactone): 50% and 58% and 40%; % Inh. [2, 7]: 58%
COc1ccc2c(c1)c(CC(=O)O)c(C)n2C(=O)c1ccc(Cl)cc1 [Indomethacin] | 44% | – | –
CCC(C)c1nn(-c2ccnc(Nc3ccccc3)c2)c(-c2ccc(F)cc2)c1/C=C/[C@@H](O)C[C@@H](O)CC(=O)O (stereo partly drawn) [Example 10a, (3R,5S,E)-7-(3-sec-butyl-5-(4-fluorophenyl)-1-(2-(phenylamino)pyridin-4-yl)-1H-pyrazol-4-yl)-3,5-dihydroxyhept-6-enoic acid calcium salt] | – | – | pIC50 [3]: 4.96; pIC50 [1]: 4.68; pIC50 [4]: 8.52
CC(C)n1c(/C=C/C(O)CC(O)CC(=O)O)c(-c2ccc(F)cc2)c2ccccc21 (centres unmarked) [Fluvastatin sodium] | 28% | – | –
CC(C)c1c(C(=O)Nc2ccccc2)c(-c2ccccc2)c(-c2ccc(F)cc2)n1CC[C@@H](O)C[C@@H](O)CC(=O)O [Atorvastatin sodium] | 9% | 63% | % Inh. [2, 7]: 31%
CC[C@H](C)C(=O)O[C@H]1C[C@H](O)C=C2C=C[C@H](C)[C@H](CC[C@@H](O)C[C@@H](O)CC(=O)O)[C@H]21 [Pravastatin sodium] | 24% | – | –
